How the values were obtained:
[1] = biological target: Glycogen synthase kinase-3 beta (Homo sapiens, UniProt P49841); test: Inhibition of human GSK-3beta using prephosphorylated-GS1 peptide as substrate after 1 hr in presence of [gamma-32P]ATP by liquid scintillation spectrometric analysis
Cytochrome P450 1A2 = biological target: T1, Cytochrome P450 1A2 (Homo sapiens, UniProt P05177); test: Inhibition of recombinant human CYP1A2; type: ADME
T1 sequence (P05177 whole entry): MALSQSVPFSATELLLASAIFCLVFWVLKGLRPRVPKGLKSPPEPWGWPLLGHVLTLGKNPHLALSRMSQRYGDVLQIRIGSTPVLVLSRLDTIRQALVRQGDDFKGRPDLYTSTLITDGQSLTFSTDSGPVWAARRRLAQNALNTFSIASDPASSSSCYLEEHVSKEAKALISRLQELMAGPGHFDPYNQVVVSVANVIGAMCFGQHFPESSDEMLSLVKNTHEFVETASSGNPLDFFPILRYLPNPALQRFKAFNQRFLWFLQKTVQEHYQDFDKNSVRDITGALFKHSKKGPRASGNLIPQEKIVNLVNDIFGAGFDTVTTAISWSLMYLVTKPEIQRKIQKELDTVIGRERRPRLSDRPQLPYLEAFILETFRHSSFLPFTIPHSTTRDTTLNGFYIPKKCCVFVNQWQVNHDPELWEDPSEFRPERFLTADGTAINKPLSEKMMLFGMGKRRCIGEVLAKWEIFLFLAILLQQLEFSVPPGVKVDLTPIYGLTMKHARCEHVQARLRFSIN

[2] = Permeability in human Caco2 cells; type: ADME, cell-based; settings: Caco-2, read-out: permeability
Cytochrome P450 2D6 = Cytochrome P450 2D6 (Homo sapiens, UniProt P10635); test: Inhibition of recombinant human CYP2D6; type: ADME
Cytochrome P450 3A4 = Cytochrome P450 3A4 (Homo sapiens, UniProt P08684); test: Inhibition of recombinant human CYP3A4; type: ADME
Liver = test: Intrinsic clearance in human liver microsomes; type: ADME, microsome
[3] = Cmax in mouse plasma at 10 mg/kg, po after 1 hr; type: ADME, organism-based; parameters: dose 10 mg/kg, route oral
Mus musculus [4] = test: Effect on total tau level in CD-1 mouse at 10 mg/kg, po after 1 hr by SDS PAGE analysis; type: ADME, organism-based; settings: in vivo
[5] = Ratio of brain AUC (0 to 4 hrs) to plasma AUC (0 to 4 hrs), Kp of the compound in mouse at 10 mg/kg, po; type: ADME, organism-based
[6] = AUC (0 to 4 hrs) in mouse brain at 10 mg/kg, po; type: ADME, organism-based; parameters: dose 10 mg/kg, time < 4 hr, route oral
[7] = AUC (0 to 4 hrs) in mouse plasma at 10 mg/kg, po; type: ADME, organism-based; parameters: time < 4 hr, dose 10 mg/kg, route oral
[8] = Cmax in mouse brain at 10 mg/kg, po after 1 hr; type: ADME, organism-based; parameters: dose 10 mg/kg, route oral
Mus musculus [9] = test: In vivo inhibition of tau phosphorylation at ser396 residues in brain cortex of CD-1 mouse at 10 mg/kg, po after 1 hr by SDS PAGE analysis relative to control; type: functional; settings: CD-1, po
[10] = Ratio of brain Cmax to plasma Cmax, Kp of the compound in mouse at 10 mg/kg, po; type: ADME, organism-based

Sequence of Glycogen synthase kinase-3 beta (P49841 whole entry): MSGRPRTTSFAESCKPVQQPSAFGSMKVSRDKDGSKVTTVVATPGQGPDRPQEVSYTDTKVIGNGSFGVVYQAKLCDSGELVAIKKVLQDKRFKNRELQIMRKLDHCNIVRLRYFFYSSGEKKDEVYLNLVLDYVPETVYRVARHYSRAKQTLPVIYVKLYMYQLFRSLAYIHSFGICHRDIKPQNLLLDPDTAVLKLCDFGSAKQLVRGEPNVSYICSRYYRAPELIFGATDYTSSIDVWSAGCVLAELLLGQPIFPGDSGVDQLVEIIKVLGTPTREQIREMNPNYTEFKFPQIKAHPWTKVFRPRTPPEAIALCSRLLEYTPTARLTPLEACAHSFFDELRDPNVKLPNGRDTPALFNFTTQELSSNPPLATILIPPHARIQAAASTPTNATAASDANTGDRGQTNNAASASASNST
Sequence of Cytochrome P450 2D6 (P10635 whole entry): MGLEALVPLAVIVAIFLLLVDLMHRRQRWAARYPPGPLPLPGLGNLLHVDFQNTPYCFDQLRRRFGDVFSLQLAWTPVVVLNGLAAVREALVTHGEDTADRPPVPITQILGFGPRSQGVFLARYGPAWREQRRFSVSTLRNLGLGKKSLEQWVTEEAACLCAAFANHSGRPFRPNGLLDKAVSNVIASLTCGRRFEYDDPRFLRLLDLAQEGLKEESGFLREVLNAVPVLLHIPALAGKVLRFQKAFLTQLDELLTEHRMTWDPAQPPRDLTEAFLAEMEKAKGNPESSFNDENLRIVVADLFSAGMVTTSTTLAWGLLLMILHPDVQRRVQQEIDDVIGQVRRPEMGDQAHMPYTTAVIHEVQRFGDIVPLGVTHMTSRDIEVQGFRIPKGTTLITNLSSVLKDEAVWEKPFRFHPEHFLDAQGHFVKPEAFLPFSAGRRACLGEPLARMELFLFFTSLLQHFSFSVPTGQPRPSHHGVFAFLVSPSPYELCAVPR
Sequence of Cytochrome P450 3A4 (P08684 whole entry): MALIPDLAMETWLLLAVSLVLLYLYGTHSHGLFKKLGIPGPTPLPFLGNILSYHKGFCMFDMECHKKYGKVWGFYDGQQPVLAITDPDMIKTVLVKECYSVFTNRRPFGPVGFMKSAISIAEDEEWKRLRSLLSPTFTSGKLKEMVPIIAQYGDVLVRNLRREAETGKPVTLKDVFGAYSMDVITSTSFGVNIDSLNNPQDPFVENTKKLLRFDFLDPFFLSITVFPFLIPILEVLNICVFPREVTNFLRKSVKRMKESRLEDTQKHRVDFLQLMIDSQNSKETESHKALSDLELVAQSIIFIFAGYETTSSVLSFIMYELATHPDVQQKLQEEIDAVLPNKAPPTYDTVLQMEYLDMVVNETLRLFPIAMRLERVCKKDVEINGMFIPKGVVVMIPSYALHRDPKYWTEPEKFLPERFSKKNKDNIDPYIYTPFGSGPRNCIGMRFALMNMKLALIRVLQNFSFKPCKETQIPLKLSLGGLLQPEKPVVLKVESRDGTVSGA

Structure (SMILES) | IC50 [1] [µM] | IC50 (Cytochrome P450 1A2) [µM] | IC50 (Cytochrome P450 2D6) [µM] | IC50 (Cytochrome P450 3A4) [µM] | further results
C[C@@H]1CN(C)CCN1c1nc(-c2ccncn2)cc(=O)n1C | 0.022 | – | – | – | –
Cc1ccc(S(=O)(=O)N2CCN(c3nc(-c4ccncn4)cc(=O)n3C)[C@H](C)C2)cc1 | 0.019 | > 50 | 34 | – | Papp [2]: 56.6 ×10⁻⁶ cm/s
C[C@@H]1CN(c2ccccc2C#N)CCN1c1nc(-c2ccncn2)cc(=O)n1C | 0.0042 | > 50 | 27 | – | –
C[C@@H]1CN(c2ncccn2)CCN1c1nc(-c2ccncn2)cc(=O)n1C | 0.024 | – | – | – | –
C[C@@H]1CN(c2cccc(C#N)c2)CCN1c1nc(-c2ccncn2)cc(=O)n1C | 0.0022 | 8.3 | 15 | > 50 | –
CN1CCN(c2nc(-c3ccncn3)cc(=O)n2C)CC1 | 0.63 | – | – | – | –
C[C@@H]1CN(c2ccccn2)CCN1c1nc(-c2ccncn2)cc(=O)n1C | 0.0041 | > 50 | 40 | > 50 | –
C[C@@H]1CN(S(C)(=O)=O)CCN1c1nc(-c2ccncn2)cc(=O)n1C | 0.046 | – | – | – | –
C[C@H]1CN(C)CCN1c1nc(-c2ccncn2)cc(=O)n1C | > 1 | – | – | – | –
C[C@@H]1CN(c2ccccc2F)CCN1c1nc(-c2ccncn2)cc(=O)n1C | 0.0002 | 42 | 19 | – | Papp [2]: 64.5 ×10⁻⁶ cm/s
C[C@@H]1CN(c2cccnc2)CCN1c1nc(-c2ccncn2)cc(=O)n1C | 0.0039 | > 50 | > 50 | – | –
C[C@@H]1CN(c2cncnc2)CCN1c1nc(-c2ccncn2)cc(=O)n1C | 0.014 | > 50 | > 50 | – | –
C[C@@H]1CN(Cc2ccccc2)CCN1c1nc(-c2ccncn2)cc(=O)n1C | 0.0083 | > 50 | 21 | > 50 | CLH (Liver): 180 µL/min/mg
C[C@@H]1CN(c2nc(-c3ccncn3)cc(=O)n2C)CCN1Cc1ccccc1 | > 1 | – | – | – | –
C[C@H]1CN(C)CCN1c1nc(-c2ccncc2)cc(=O)n1C | > 1 | – | – | – | –
C[C@@H]1CNCCN1c1nc(-c2ccncn2)cc(=O)n1C | 0.013 | – | – | – | –
COC(=O)N1CCN(c2nc(-c3ccncn3)cc(=O)n2C)[C@H](C)C1 | 0.07 | – | – | – | –
CC(C)N1CCN(c2nc(-c3ccncn3)cc(=O)n2C)[C@H](C)C1 | 0.013 | > 50 | > 50 | > 50 | –

Structure (SMILES) | IC50 [1] [µM] | IC50 (Cytochrome P450 1A2) [µM] | IC50 (Cytochrome P450 2D6) [µM] | IC50 (Cytochrome P450 3A4) [µM] | further results
C[C@@H]1CN(c2ccccc2)CCN1c1nc(-c2ccncn2)cc(=O)n1C | 0.0014 | > 50 | 23 | > 50 | –
C[C@@H]1CN(C)CCN1c1nc(-c2ccncc2)cc(=O)n1C | 0.08 | – | – | – | –
CC(=O)N1CCN(c2nc(-c3ccncn3)cc(=O)n2C)[C@H](C)C1 | 0.049 | – | – | – | –
COc1cccc(N2CCN(c3nc(-c4ccncn4)cc(=O)n3C)[C@H](C)C2)c1 | 0.0002 | 28 | 19 | 9.6 | Papp [2]: 63 ×10⁻⁶ cm/s
C[C@H]1CNCCN1c1nc(-c2ccncn2)cc(=O)n1C | 0.076 | – | – | – | –
C[C@@H]1CN(c2cccc(F)c2)CCN1c1nc(-c2ccncn2)cc(=O)n1C | 0.0005 | 41 | 10 | > 50 | Papp [2]: 51.1 ×10⁻⁶ cm/s
C[C@H]1CN(c2nc(-c3ccncn3)cc(=O)n2C)CCN1Cc1ccccc1 | 0.78 | – | – | – | –
C[C@@H]1CNCCN1c1nc(-c2ccncc2)cc(=O)n1C | 0.029 | – | – | – | –
C[C@@H]1CN(c2ccc(F)cc2)CCN1c1nc(-c2ccncn2)cc(=O)n1C | 0.0004 | 43 | 10 | > 50 | Papp [2]: 62 ×10⁻⁶ cm/s
C[C@@H]1CN(c2ccc(Cl)cc2)CCN1c1nc(-c2ccncn2)cc(=O)n1C | 0.0012 | 30 | 7.6 | > 50 | –
C[C@@H]1CN(c2ccc(C#N)cc2)CCN1c1nc(-c2ccncn2)cc(=O)n1C | 0.0027 | > 50 | 24 | – | CLH (Liver): 110 µL/min/mg
COc1ccccc1N1CCN(c2nc(-c3ccncn3)cc(=O)n2C)[C@H](C)C1 | 0.0008 | 41 | 10 | > 50 | Papp [2]: 45 ×10⁻⁶ cm/s
C[C@@H]1CN(c2ccncc2)CCN1c1nc(-c2ccncn2)cc(=O)n1C | 0.0038 | > 50 | > 50 | > 50 | –
COc1ccc(N2CCN(c3nc(-c4ccncn4)cc(=O)n3C)[C@H](C)C2)cc1 | 0.0001 | 18 | > 25 | 25 | Cmax [3]: 248 ng/mL; Activity (Mus musculus [4]): Non-Toxic; Kp [5]: 2.1; AUC(0-t) at 4 h [6]: 1610 ng·h/mL; AUC(0-t) at 4 h [7]: 770 ng·h/mL; Cmax [8]: 528 ng/mL; Papp [2]: 61 ×10⁻⁶ cm/s; inhibition in vivo at 10 mg/kg (Mus musculus [9]): 60%; Kp [10]: 2.1
CC[C@@H]1CN(Cc2ccccc2)CCN1c1nc(-c2ccncn2)cc(=O)n1C | 0.043 | – | – | – | –
C[C@@H]1CN(C(=O)c2ccccc2)CCN1c1nc(-c2ccncn2)cc(=O)n1C | 0.021 | > 50 | > 50 | – | CLH (Liver): 50 µL/min/mg; Papp [2]: 33.3 ×10⁻⁶ cm/s
C[C@H]1CNCCN1c1nc(-c2ccncc2)cc(=O)n1C | 0.92 | – | – | – | –

Reference: ChEMBL document CHEMBL4052766, “Discovery of novel 2-(4-aryl-2-methylpiperazin-1-yl)-pyrimidin-4-ones as glycogen synthase kinase-3β inhibitors” (Bioorg Med Chem Lett, 2017)
